# Test results reported in patent US6992079B2, “Substituted 11-phenyl-dibenzazepine compounds useful for the treatment or prevention of diseases characterized by abnormal cell proliferation” (President Fellows of Harvard College, priority 1997, dated 2006).
# Read-outs that look alike come from different tables or passages of the source.
# What was measured:
# [1] = test system: human melanoma MM-RU cells; experiment: Lung metastases in MM-RU tumor-bearing mice; assay type: in vivo, nude mice
# [2] = test system: NIH 3T3 mouse fibroblast cells; experiment: Mitogenic assay (mitogen-induced cell proliferation); assay type: cell-based; conditions: NIH3T3, 10 μM compound
# [3] = test system: squamous cell carcinoma (KLN-205) cells; experiment: Tumor growth in murine squamous cell carcinoma model; assay type: in vivo, mouse
# [4] = Preliminary toxicology, subcutaneous injection for 14 days; assay type: in vivo, CD-1 female mice; conditions: mouse, in vivo, sc, 80 mg/kg/day
# Procedure: The toxicological effects of CLT, and compounds 28, 30 and 31 were tested in CD-1 female mice. A dose of 80 mg/kg/day was given to each mouse via subcutaneous injection for a period of 14 days. Preliminary toxicological data was determined by measuring body weight, gross pathology of organs blood chemistry and histology. The vehicle used was DMF 12%+2% Tween 20 88%.
# [5] = test system: Ca^2+ from intracellular pools / capacitative Ca^2+ influx; experiment: Intracellular Ca2+ release and capacitative Ca2+ influx; assay type: cell-based; conditions: in vitro
# A549 = experiment: SRB antiproliferative assay; assay type: cell-based; conditions: Homo sapiens
# Excerpt: (§1) The cells were passaged using Trypsin (Gibco).
# MCF7 = experiment: SRB antiproliferative assay; assay type: cell-based; conditions: Homo sapiens
# Excerpt: as §1
# MMRU = experiment: SRB antiproliferative assay; assay type: cell-based; conditions: Homo sapiens
# Excerpt: as §1
# HT29 = experiment: SRB antiproliferative assay; assay type: cell-based; conditions: Homo sapiens
# Excerpt: as §1
# HTB174 = experiment: SRB antiproliferative assay; assay type: cell-based; conditions: Homo sapiens, HTB174 (Lung), 5% FCS/5 day incubation
# Excerpt: as §1
# MDA-MB-23 = experiment: SRB antiproliferative assay; assay type: cell-based; conditions: Homo sapiens
# Excerpt: as §1
# HEPG2 = experiment: SRB antiproliferative assay; assay type: cell-based; conditions: Homo sapiens, HepG2, HEPG2 (Hepatocel), 5% FCS/5 day incubation
# Excerpt: as §1
# HeLa = experiment: SRB antiproliferative assay; assay type: cell-based; conditions: Homo sapiens, HeLa (Cervical), 5% FCS/5 day incubation
# Excerpt: as §1
# U118MG = experiment: SRB antiproliferative assay; assay type: cell-based; conditions: Homo sapiens, U-118-MG, U118MG (CNS), 5% FCS/5 day incubation
# Excerpt: as §1
# [6] = target: T1, Gardos channel of erythrocytes (Homo sapiens, UniProt O15554); experiment: Gardos channel assay; assay type: cell-based
# T1 construct: endogenous in cells; host or cells: erythrocytes
# T1 sequence (O15554 whole entry): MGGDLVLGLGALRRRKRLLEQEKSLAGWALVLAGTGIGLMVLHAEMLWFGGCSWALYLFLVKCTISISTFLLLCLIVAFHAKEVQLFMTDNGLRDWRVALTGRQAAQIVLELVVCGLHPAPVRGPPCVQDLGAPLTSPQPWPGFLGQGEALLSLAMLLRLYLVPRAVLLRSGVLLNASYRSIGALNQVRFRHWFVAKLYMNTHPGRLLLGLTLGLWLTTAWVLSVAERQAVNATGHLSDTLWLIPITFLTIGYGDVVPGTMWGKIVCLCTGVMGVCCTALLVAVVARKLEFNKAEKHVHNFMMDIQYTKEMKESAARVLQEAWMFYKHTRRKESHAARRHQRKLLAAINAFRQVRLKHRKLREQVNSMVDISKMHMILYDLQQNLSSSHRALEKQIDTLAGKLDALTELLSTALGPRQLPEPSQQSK
# GM = experiment: SRB antiproliferative assay; assay type: cell-based; conditions: GM (Normal human), 5% FCS/5 day incubation
# Excerpt: as §1
# ACHN = experiment: SRB antiproliferative assay; assay type: cell-based; conditions: Homo sapiens, ACHN (Renal), 5% FCS/5 day incubation
# Excerpt: as §1
# CaSki = experiment: SRB antiproliferative assay; assay type: cell-based; conditions: Homo sapiens, Ca-Ski, CaSki (Cervical), 5% FCS/5 day incubation
# Excerpt: as §1
# L929 = experiment: SRB antiproliferative assay; assay type: cell-based; conditions: L929 (Normal mouse), 5% FCS/5 day incubation
# Excerpt: as §1
# HCT-15 = experiment: SRB antiproliferative assay; assay type: cell-based; conditions: Homo sapiens, HCT-15 (Colon), 5% FCS/5 day incubation
# Excerpt: as §1
# HUVEC = experiment: SRB antiproliferative assay; assay type: cell-based; conditions: HUVEC (Normal human), 5% FCS/5 day incubation
# Excerpt: as §1
# DU-145 = experiment: SRB antiproliferative assay; assay type: cell-based; conditions: Homo sapiens, DU-145 (Prostate), 5% FCS/5 day incubation
# Excerpt: as §1
# SK-MEL-28 = experiment: SRB antiproliferative assay; assay type: cell-based; conditions: Homo sapiens, SK-MEL-28 (Melanoma), 5% FCS/5 day incubation
# Excerpt: as §1
# [7] = mouse, in vivo, po, 120 mg/kg/day
# [8] = A549, A549 (Lung), 5% FCS/5 day incubation
# [9] = MCF7, MCF7 (Breast), 5% FCS/5 day incubation
# [10] = HT-29, HT29 (Colon), 5% FCS/5 day incubation
# [11] = MDA-MB-23 (Breast), SRB, 5% FCS/5 day incubation, read-out: IC50
# [12] = MMRU (Melanoma), 5% FCS/5 day incubation
structure (smiles),measurement,setting,value
"Clc1ccccc1C(c1ccccc1)(c1ccccc1)n1ccnc1 [Clotrimazole, reference compound]",Lung Metastases,"[1]; MM-RU tumor-bearing mice, 120 mg/kg/d × 21, p.o.",64 ± 20
same,Body Wt. Change,[1]; [7],86%
same,Liver Wt.,[1]; [7],1.19 ± 0.10 gram
same,inhibition at 10 µM,[2],93%
same,cyclin D1 and PCNA expression in vivo,[3]; KLN induced tumors,abrogated cyclin D1 and PCNA expression
same,tumor growth,"[3]; KLN-205, subcutaneous injection or oral administration of 80 mg/kg/day for 30 days",significantly inhibited tumor growth
same,overall body weight vs age matched control animals,[4],no significant gains or losses
same,Ca^2+ release from intracellular pools,[5],releases Ca^2+ from intracellular pools
same,capacitative Ca^2+ influx into the cell,[5],inhibits capacitative Ca^2+ influx
CN1Cc2ccccc2C(c2ccccc2)c2ccccc21 (stereo not drawn) [Compound 2],inhibition at 10 µM,[2]; Mus musculus,99%
O=C(c1ccc2ccccc2c1)N1Cc2ccccc2C(c2ccccc2)c2ccccc21 (stereo not drawn) [Compound 25],inhibition at 10 µM,[2]; Mus musculus,75%
O=C(Nc1ccccc1)N1Cc2ccccc2C(c2ccccc2Cl)c2ccccc21 (stereo not drawn) [Compound 32],inhibition at 10 µM,[2]; Mus musculus,99%
COc1cccc2c1C(c1ccccc1Cl)c1cc(Cl)ccc1N(C(=O)c1ccc(Cl)cc1)C2 (stereo not drawn) [Compound 24],inhibition at 10 µM,[2]; Mus musculus,89%
CN1Cc2ccccc2C(c2ccccc2Cl)c2ccccc21 (stereo not drawn) [Compound 4],inhibition at 10 µM,[2]; Mus musculus,89%
same,IC50,"A549; A549, A549, 2% FCS/3 days",11.4 µM
same,IC50,"MCF7; MCF7, MCF7, 2% FCS/3 days",1.7 µM
same,IC50,"MMRU; MMRU, 2% FCS/3 days",4.6 µM
same,IC50,"HT29; HT-29, HT29, 2% FCS/3 days",9.7 µM
"O=C(Oc1ccccc1)N1Cc2ccccc2C(c2ccccc2)c2ccccc21 (stereo not drawn) [Compound 14, N-phenoxycarbonyl-11-phenyl-5,6-dihydro-11H-dibenz[b,e]azepine]",melting point,,155 to 165 °C
same,inhibition at 10 µM,[2]; Mus musculus,98%
CNc1ccc(C(=O)N2Cc3ccccc3C(c3ccccc3Cl)c3ccccc32)cc1 (stereo not drawn) [Compound 33],inhibition at 10 µM,[2]; Mus musculus,99%
same,IC50,HTB174,1.4 µM
CN1Cc2ccccc2C(c2ccccc2)c2cc(Br)ccc21 (stereo not drawn) [Compound 7],inhibition at 10 µM,[2]; Mus musculus,99%
c1ccc(CN2Cc3ccccc3C(c3ccccc3)c3ccccc32)cc1 (stereo not drawn) [Compound 5],inhibition at 10 µM,[2]; Mus musculus,91%
O=C(O)C(=O)N1Cc2ccccc2C(c2ccccc2)c2ccccc21 (stereo not drawn) [Compound 11],inhibition at 10 µM,[2]; Mus musculus,32%
COc1ccc2c(c1)CN(C(=O)c1ccc(Cl)cc1)c1ccc(Cl)cc1C2c1ccccc1Cl (stereo not drawn) [Compound 23],inhibition at 10 µM,[2]; Mus musculus,55%
COC(=O)N1Cc2ccccc2C(c2ccccc2)c2ccccc21 (stereo not drawn) [Compound 6],inhibition at 10 µM,[2]; Mus musculus,87%
same,IC50,"A549; A549, A549, 5% FCS/2 days",> 10 µM
same,IC50,"HT29; HT-29, HT29, 5% FCS/2 days",> 10 µM
COc1ccc(C(=O)N2Cc3ccccc3C(c3ccccc3Cl)c3ccccc32)cc1 (stereo not drawn) [Compound 27],inhibition at 10 µM,[2]; Mus musculus,99%
same,IC50,A549; [8],1.1 µM
same,IC50,MCF7; [9],0.5 µM
same,IC50,HT29; [10],0.4 µM
same,IC50,HTB174,0.3 µM
same,IC50,MDA-MB-23; [11],> 1 µM
same,IC50,HEPG2,0.4 µM
same,IC50,HeLa,0.2 µM
same,IC50,U118MG,0.4 µM
CN1Cc2ccccc2C(c2ccccc2Cl)c2ccccc21 (stereo not drawn) [Compound 29],IC50,[6],0.414 to 0.433 µM
O=C(c1ccc(Cl)cc1)N1Cc2ccccc2C(c2ccccc2)c2ccccc21 (stereo not drawn) [Compound 13],inhibition at 10 µM,[2]; Mus musculus,97%
CCOC(=O)C(=O)N1Cc2ccccc2C(c2ccccc2)c2ccccc21 (stereo not drawn) [Compound 10],inhibition at 10 µM,[2]; Mus musculus,53%
COc1ccc2c(c1)CNc1ccc(Cl)cc1C2c1ccccc1Cl (stereo not drawn) [Compound 19],inhibition at 10 µM,[2]; Mus musculus,99%
"COC(=O)N1Cc2ccccc2C(c2ccccc2Cl)c2ccccc21 (stereo not drawn) [Compound 9, N-methoxycarbonyl-11-(2′-chlorophenyl)-5,6-dihydro-11H-dibenz[b,e]azepine]",melting point,,159 to 161 °C
same,inhibition at 10 µM,[2]; Mus musculus,99%
COc1ccc2c(c1)CNc1ccccc1C2(c1ccccc1)c1ccc(F)cc1 (stereo not drawn) [Compound 12],inhibition at 10 µM,[2]; Mus musculus,13%
Clc1ccccc1C1c2ccccc2CNc2ccccc21 (stereo not drawn) [Compound 3],inhibition at 10 µM,[2]; Mus musculus,99%
COc1cccc2c1C(c1ccccc1Cl)c1cc(Cl)ccc1NC2 (stereo not drawn) [Compound 18],inhibition at 10 µM,[2]; Mus musculus,99%
COc1ccc(C(=O)N2Cc3ccccc3C(c3ccccc3)c3ccccc32)cc1 (stereo not drawn) [Compound 21],inhibition at 10 µM,[2]; Mus musculus,93%
same,IC50,HTB174,1.9 µM
Clc1ccc2c(c1)C(c1ccccc1)c1cc3ccccc3cc1CN2 (stereo not drawn) [Compound 15],inhibition at 10 µM,[2]; Mus musculus,40%
Clc1ccccc1C1c2ccccc2CN(Cc2ccccc2)c2ccccc21 (stereo not drawn) [Compound 8],inhibition at 10 µM,[2]; Mus musculus,84%
O=C(Nc1ccc([N+](=O)[O-])cc1)N1Cc2ccccc2C(c2ccccc2Cl)c2ccccc21 (stereo not drawn) [Compound 35],inhibition at 10 µM,[2]; Mus musculus,0%
same,IC50,A549; [8],> 5 µM
same,IC50,MCF7; [9],2.4 µM
same,IC50,MMRU; [12],3.1 µM
same,IC50,HT29; [10],4.8 µM
same,IC50,HTB174,4 µM
same,IC50,HEPG2,4.5 µM
"O=C(Oc1ccccc1)N1Cc2ccccc2C(c2ccccc2Cl)c2ccccc21 (stereo not drawn) [Compound 26, N-phenoxycarbonyl-11-(2′-chlorophenyl)-5,6-dihydro-11H-dibenz[b,e]azepine]",melting point,,95 to 99 °C
same,inhibition at 10 µM,[2]; Mus musculus,99%
COc1cccc(C(=O)N2Cc3ccccc3C(c3ccccc3)c3ccccc32)c1 (stereo not drawn) [Compound 17],inhibition at 10 µM,[2]; Mus musculus,99%
O=C(c1ccccc1)N1Cc2ccccc2C(c2ccccc2)c2ccccc21 (stereo not drawn) [Compound 16],inhibition at 10 µM,[2]; Mus musculus,99%
same,IC50,A549; [8],> 5 µM
same,IC50,MCF7; [9],4.2 µM
same,IC50,MMRU; [12],2.7 µM
same,IC50,HT29; [10],2.6 µM
same,IC50,HEPG2,3.4 µM
Cc1ccc(C(=O)N2Cc3ccccc3C(c3ccccc3)c3ccccc32)cc1 (stereo not drawn) [Compound 22],inhibition at 10 µM,[2]; Mus musculus,99%
same,IC50,HTB174,1.4 µM
c1ccc(C2c3ccccc3CNc3ccccc32)cc1 (stereo not drawn) [Compound 1],inhibition at 10 µM,[2]; Mus musculus,56%
O=C(c1ccc([N+](=O)[O-])cc1)N1Cc2ccccc2C(c2ccccc2)c2ccccc21 (stereo not drawn) [Compound 20],inhibition at 10 µM,[2]; Mus musculus,95%
same,IC50,HT29; [10],0.7 µM
same,IC50,HTB174,0.7 µM
same,IC50,MDA-MB-23; [11],> 1 µM
same,IC50,HEPG2,0.9 µM
same,IC50,HeLa,0.6 µM
same,IC50,U118MG,0.9 µM
Nc1ccc(C(=O)N2Cc3ccccc3C(c3ccccc3Cl)c3ccccc32)cc1 (stereo not drawn) [Compound 34],inhibition at 10 µM,[2]; Mus musculus,99%
same,IC50,MMRU; [12],1.2 µM
same,IC50,HTB174,0.9 µM
same,IC50,HEPG2,1.5 µM
"COc1cc([C@@H]2c3cc4c(cc3[C@@H](O[C@@H]3O[C@@H]5CO[C@@H](C)O[C@H]5[C@H](O)[C@H]3O)[C@H]3COC(=O)[C@H]23)OCO4)cc(OC)c1O [VP-16, Etoposide, reference compound]",IC50,A549; [8],< 1.25 µM
same,IC50,"A549; A549, A549, 2% FCS/3 days",2.3 µM
same,IC50,GM,1.4 µM
same,IC50,MCF7; [9],< 1.25 µM
same,IC50,"MCF7; MCF7, MCF7, 2% FCS/3 days",< 2.5 µM
same,IC50,ACHN,< 1.25 µM
same,IC50,MMRU; [12],< 1.25 µM
same,IC50,"MMRU; MMRU, 2% FCS/3 days",< 2.5 µM
same,IC50,HT29; [10],< 1.25 µM
same,IC50,"HT29; HT-29, HT29, 2% FCS/3 days",20 µM
same,IC50,CaSki,1.8 µM
same,IC50,L929,< 1.25 µM
same,IC50,HCT-15,1.3 µM
same,IC50,HUVEC,< 1.25 µM
same,IC50,HTB174,< 1.25 µM
same,IC50,MDA-MB-23; MDA-MB-23,< 1.25 µM
same,IC50,HEPG2,< 1.25 µM
same,IC50,DU-145,< 1.25 µM
same,IC50,SK-MEL-28,< 1.25 µM
same,IC50,HeLa,< 1.25 µM
same,IC50,U118MG,2.2 µM
